The text below walks through data of the supplement of paper PMC10307832.

Holding throughout (assay): relative viability (nuclei count vs DMSO), 5 days (fraction); higher = more cells survive
Compound in one assay: CCc1cnn2c(NCc3ccc[n+]([O-])c3)cc(N3CCCC[C@H]3CCO)nc12 [Dinaciclib]
The method in brief: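 Acceptance criteria were a control CV below 25% and at least one doubling per plate. Lung cancer cell lines in 1536-well plates got five library-drug doses (not always all listed) √10 apart by pinning and were left 5 days with no medium change. Viability divides treated-well nuclei by vehicle-well nuclei and is the median across plates. Nuclei were counted by MetaXpress from 4× Hoechst images.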

Compound in the assay “Dinaciclib + AZD7762”: CCc1cnn2c(NCc3ccc[n+]([O-])c3)cc(N3CCCC[C@H]3CCO)nc12 [Dinaciclib] + NC(=O)Nc1cc(-c2cccc(F)c2)sc1C(=O)N[C@H]1CCCNC1 [AZD7762] (partner 0.2 µM)
Summed up:
(§1)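 Lung cancer cell lines in 1536-well plates were dosed by pin tool the day after seeding, either with one drug alone or with a fixed anchor-drug dose plus five library-drug doses (not always all listed) in √10 steps. After 5 days, cells were fixed and their nuclei stained in one step (final 0.05% Triton X-100, 1% formaldehyde, 1 ug/ml Hoechst), then counted on 4× images. Relative viability is the nuclei count in treated wells divided by that in vehicle wells. Values are medians of duplicate plates.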

Compound in the assay “Dinaciclib + Lapatinib”: CCc1cnn2c(NCc3ccc[n+]([O-])c3)cc(N3CCCC[C@H]3CCO)nc12 [Dinaciclib] + CS(=O)(=O)CCNCc1ccc(-c2ccc3ncnc(Nc4ccc(OCc5cccc(F)c5)c(Cl)c4)c3c2)o1 [Lapatinib] (partner 2 µM)
The method in brief:
as §1

Compound in the assay “Dinaciclib + Vorinostat”: CCc1cnn2c(NCc3ccc[n+]([O-])c3)cc(N3CCCC[C@H]3CCO)nc12 [Dinaciclib] + O=C(CCCCCCC(=O)Nc1ccccc1)NO [Vorinostat] (partner 1 µM)
The method in brief: as §1

Compound in the assay “Dinaciclib + Trametinib”: CCc1cnn2c(NCc3ccc[n+]([O-])c3)cc(N3CCCC[C@H]3CCO)nc12 [Dinaciclib] + CC(=O)Nc1cccc(-n2c(=O)n(C3CC3)c(=O)c3c(Nc4ccc(I)cc4F)n(C)c(=O)c(C)c32)c1 [Trametinib] (partner 0.02 µM)
Summed up:
as §1

Consider ABC-1, for which the relative viability came out at 0.757 with Dinaciclib (0.009487 µM); 0.237 with Dinaciclib (0.03 µM); 0.165 with Dinaciclib (0.09487 µM); 0.116 with Dinaciclib (0.3 µM); 0.87 with Dinaciclib + AZD7762 (first compound 0.009487 µM); 0.642 with Dinaciclib + AZD7762 (first compound 0.03 µM). The relative viability was 0.189 in the assay with Dinaciclib + AZD7762 (first compound 0.09487 µM); 0.178 in the assay with Dinaciclib + AZD7762 (first compound 0.3 µM); 1.19 with Dinaciclib + Lapatinib (first compound 0.009487 µM); 0.574 in the assay with Dinaciclib + Lapatinib (first compound 0.03 µM); 0.357 with Dinaciclib + Lapatinib (first compound 0.09487 µM); 0.303 with Dinaciclib + Lapatinib (first compound 0.3 µM). The relative viability with Dinaciclib + Vorinostat (first compound 0.009487 µM) was 0.845; in the assay with Dinaciclib + Vorinostat (first compound 0.03 µM), 0.419; in the assay with Dinaciclib + Vorinostat (first compound 0.09487 µM) it was 0.297; in the assay with Dinaciclib + Vorinostat (first compound 0.3 µM), 0.246.
As for NCI-H1703, the relative viability in the assay with Dinaciclib (0.009487 µM) came to 1.16; with Dinaciclib (0.03 µM), 0.531; with Dinaciclib (0.09487 µM) it was 0.104; with Dinaciclib (0.3 µM) it was 0.118; in the assay with Dinaciclib + AZD7762 (first compound 0.009487 µM), 0.132; in the assay with Dinaciclib + AZD7762 (first compound 0.03 µM), 0.125. Besides, the relative viability with Dinaciclib + AZD7762 (first compound 0.09487 µM) worked out at 0.0862; in the assay with Dinaciclib + AZD7762 (first compound 0.3 µM), 0.087; with Dinaciclib + Lapatinib (first compound 0.009487 µM) it was 1.01; with Dinaciclib + Lapatinib (first compound 0.03 µM), 0.133; in the assay with Dinaciclib + Lapatinib (first compound 0.09487 µM) it was 0.114; in the assay with Dinaciclib + Lapatinib (first compound 0.3 µM) it was 0.134.
As to COR-L 105, the relative viability in the assay with Dinaciclib (0.009487 µM) was found to be 0.599; in the assay with Dinaciclib (0.03 µM), 0.285; with Dinaciclib (0.09487 µM) it was 0.264; with Dinaciclib (0.3 µM), 0.29; with Dinaciclib + Trametinib (first compound 0.009487 µM), 0.41; with Dinaciclib + Trametinib (first compound 0.03 µM), 0.327. Besides, the relative viability with Dinaciclib + Trametinib (first compound 0.09487 µM) was found to be 0.35; with Dinaciclib + Trametinib (first compound 0.3 µM), 0.329; with Dinaciclib + Lapatinib (first compound 0.009487 µM) it was 0.327; with Dinaciclib + Lapatinib (first compound 0.03 µM), 0.292; with Dinaciclib + Lapatinib (first compound 0.09487 µM) it was 0.283; with Dinaciclib + Lapatinib (first compound 0.3 µM), 0.299. The relative viability came to 0.679 with Dinaciclib + Vorinostat (first compound 0.009487 µM), 0.444 with Dinaciclib + Vorinostat (first compound 0.03 µM), 0.302 with Dinaciclib + Vorinostat (first compound 0.09487 µM) and 0.302 with Dinaciclib + Vorinostat (first compound 0.3 µM).
For NCI-H661, the relative viability with Dinaciclib (0.009487 µM) is 1.03; in the assay with Dinaciclib (0.03 µM) it was 0.246; with Dinaciclib (0.09487 µM) it was 0.201; in the assay with Dinaciclib (0.3 µM) it was 0.19; in the assay with Dinaciclib + Trametinib (first compound 0.009487 µM) it was 0.512; with Dinaciclib + Trametinib (first compound 0.03 µM), 0.162. For the same cell line, the relative viability with Dinaciclib + Trametinib (first compound 0.09487 µM) is 0.17; in the assay with Dinaciclib + Trametinib (first compound 0.3 µM), 0.161; in the assay with Dinaciclib + Lapatinib (first compound 0.009487 µM) it was 0.41; with Dinaciclib + Lapatinib (first compound 0.03 µM) it was 0.183; in the assay with Dinaciclib + Lapatinib (first compound 0.09487 µM), 0.181; with Dinaciclib + Lapatinib (first compound 0.3 µM) it was 0.191. The relative viability worked out at 0.804 with Dinaciclib + Vorinostat (first compound 0.009487 µM), 0.235 with Dinaciclib + Vorinostat (first compound 0.03 µM), 0.211 with Dinaciclib + Vorinostat (first compound 0.09487 µM) and 0.211 with Dinaciclib + Vorinostat (first compound 0.3 µM).
Turning to NCI-H1650, the relative viability turned out to be 0.943 with Dinaciclib (0.009487 µM); 0.174 with Dinaciclib (0.03 µM); 0.134 with Dinaciclib (0.09487 µM); 0.148 with Dinaciclib (0.3 µM); 0.516 in the assay with Dinaciclib + Trametinib (first compound 0.009487 µM); 0.163 with Dinaciclib + Trametinib (first compound 0.03 µM). Also, the relative viability with Dinaciclib + Trametinib (first compound 0.09487 µM) was found to be 0.151; in the assay with Dinaciclib + Trametinib (first compound 0.3 µM) it was 0.119; with Dinaciclib + Lapatinib (first compound 0.009487 µM), 0.648; with Dinaciclib + Lapatinib (first compound 0.03 µM), 0.15; with Dinaciclib + Lapatinib (first compound 0.09487 µM) it was 0.169; in the assay with Dinaciclib + Lapatinib (first compound 0.3 µM) it was 0.143. The relative viability worked out at 0.798 with Dinaciclib + Vorinostat (first compound 0.009487 µM), 0.175 in the assay with Dinaciclib + Vorinostat (first compound 0.03 µM), 0.119 with Dinaciclib + Vorinostat (first compound 0.09487 µM) and 0.125 with Dinaciclib + Vorinostat (first compound 0.3 µM).
On to SW 1573, for which the relative viability with Dinaciclib (0.009487 µM) is 0.83; with Dinaciclib (0.03 µM) it was 0.133; with Dinaciclib (0.09487 µM) it was 0.0862; with Dinaciclib (0.3 µM), 0.081; in the assay with Dinaciclib + Trametinib (first compound 0.009487 µM), 0.404; with Dinaciclib + Trametinib (first compound 0.03 µM) it was 0.0877. Moreover, the relative viability in the assay with Dinaciclib + Trametinib (first compound 0.09487 µM) was 0.0832; in the assay with Dinaciclib + Trametinib (first compound 0.3 µM), 0.0755; with Dinaciclib + Lapatinib (first compound 0.009487 µM), 1.25; in the assay with Dinaciclib + Lapatinib (first compound 0.03 µM), 0.575; with Dinaciclib + Lapatinib (first compound 0.09487 µM), 0.0951; with Dinaciclib + Lapatinib (first compound 0.3 µM) it was 0.0867. Further, the relative viability with Dinaciclib + Vorinostat (first compound 0.009487 µM) amounted to 0.444; in the assay with Dinaciclib + Vorinostat (first compound 0.03 µM) it was 0.071; with Dinaciclib + Vorinostat (first compound 0.09487 µM) it was 0.0779; with Dinaciclib + Vorinostat (first compound 0.3 µM), 0.0742.
For the cell line UMC-11, the relative viability worked out at 0.405 in the assay with Dinaciclib (0.009487 µM); 0.204 in the assay with Dinaciclib (0.03 µM); 0.179 with Dinaciclib (0.09487 µM); 0.196 in the assay with Dinaciclib (0.3 µM); 0.253 with Dinaciclib + Trametinib (first compound 0.009487 µM); 0.172 with Dinaciclib + Trametinib (first compound 0.03 µM). Also, the relative viability in the assay with Dinaciclib + Trametinib (first compound 0.09487 µM) was found to be 0.132; with Dinaciclib + Trametinib (first compound 0.3 µM), 0.146; in the assay with Dinaciclib + Lapatinib (first compound 0.009487 µM), 0.442; in the assay with Dinaciclib + Lapatinib (first compound 0.03 µM) it was 0.179; with Dinaciclib + Lapatinib (first compound 0.09487 µM) it was 0.143; with Dinaciclib + Lapatinib (first compound 0.3 µM), 0.169. In addition, the relative viability with Dinaciclib + Vorinostat (first compound 0.009487 µM) is 0.229; with Dinaciclib + Vorinostat (first compound 0.03 µM), 0.174; with Dinaciclib + Vorinostat (first compound 0.09487 µM) it was 0.167; in the assay with Dinaciclib + Vorinostat (first compound 0.3 µM), 0.167.
Take LCLC-103H: the relative viability in the assay with Dinaciclib (0.009487 µM) came to 1.03; with Dinaciclib (0.03 µM) it was 0.855; in the assay with Dinaciclib (0.09487 µM), 0.204; with Dinaciclib (0.3 µM) it was 0.146; with Dinaciclib + Trametinib (first compound 0.009487 µM) it was 0.674; with Dinaciclib + Trametinib (first compound 0.03 µM), 0.659. For the same cell line, the relative viability in the assay with Dinaciclib + Trametinib (first compound 0.09487 µM) amounted to 0.255; with Dinaciclib + Trametinib (first compound 0.3 µM) it was 0.249; with Dinaciclib + AZD7762 (first compound 0.009487 µM), 0.881; in the assay with Dinaciclib + AZD7762 (first compound 0.03 µM) it was 0.351; with Dinaciclib + AZD7762 (first compound 0.09487 µM) it was 0.279; in the assay with Dinaciclib + AZD7762 (first compound 0.3 µM), 0.197. In addition, the relative viability with Dinaciclib + Vorinostat (first compound 0.009487 µM) is 0.777; with Dinaciclib + Vorinostat (first compound 0.03 µM), 0.505; with Dinaciclib + Vorinostat (first compound 0.09487 µM), 0.178; with Dinaciclib + Vorinostat (first compound 0.3 µM) it was 0.197.
NCI-H520: the relative viability in the assay with Dinaciclib (0.009487 µM) was determined as 0.915; with Dinaciclib (0.03 µM) it was 0.276; with Dinaciclib (0.09487 µM), 0.155; with Dinaciclib (0.3 µM), 0.18; with Dinaciclib + Trametinib (first compound 0.009487 µM) it was 0.506; in the assay with Dinaciclib + Trametinib (first compound 0.03 µM), 0.104. The relative viability in the assay with Dinaciclib + Trametinib (first compound 0.09487 µM) was 0.0836; with Dinaciclib + Trametinib (first compound 0.3 µM) it was 0.104; with Dinaciclib + Lapatinib (first compound 0.009487 µM) it was 0.509; in the assay with Dinaciclib + Lapatinib (first compound 0.03 µM), 0.115; with Dinaciclib + Lapatinib (first compound 0.09487 µM), 0.104; with Dinaciclib + Lapatinib (first compound 0.3 µM), 0.141. In addition, the relative viability was 0.531 with Dinaciclib + Vorinostat (first compound 0.009487 µM), 0.153 in the assay with Dinaciclib + Vorinostat (first compound 0.03 µM), 0.15 with Dinaciclib + Vorinostat (first compound 0.09487 µM) and 0.138 in the assay with Dinaciclib + Vorinostat (first compound 0.3 µM).
